Target: T1, wild-type K-Ras protein (Homo sapiens, UniProt P01116)
T1 construct: expressed in transfected cells; host or cells: HeLa
Assay: Degradation (knockdown) of wild-type K-Ras protein forcibly expressed in HeLa cells, Western blot analysis
Type: cell-based
Settings: FIG. 2
Experimental: In Example 3, degradation (knockdown) of a forcibly expressed wild-type K-Ras protein in HeLa cells through TUS-007 was evaluated by Western blot analysis.
A plasmid expressing the wild-type K-Ras protein (K-Ras-WT) was prepared, as in Example 2.
As in Example 2, the plasmid was introduced into HeLa cells to transiently overexpress the wild-type K-Ras protein (specifically, a fusion protein of the wild-type K-Ras protein and GFP through a HA tag) or a DsRed protein for comparison in the cells. HeLa cells into which the plasmid had been introduced were seeded in a 24-well plate at a cell density of 4×10^4 cells/well, and then cultured under conditions of 37° C. and 5 vol % CO2 for 40 hours.
Culture was performed for 40 hours after introduction of the plasmid, and then TUS-007 was added to HeLa cells as follows. […]
After electrophoresis, proteins were transferred to a PVDF membrane (Immobion™-P, Millipore) under conditions of 100 V and 120 minutes using a tank-type blotting device and a transfer buffer (25 mM Tris-HCl, 195 mM glycine, 0.01% SDS, 15% methanol). […] Subsequently, the membrane was treated with a chemiluminescence reagent Immobilon™ Western (Millipore), and then chemiluminescence was detected using a lumino image analyzer LAS-3000 (FUJIFILM Corporation). […]

T1 sequence (P01116 1-188 isoform P01116-2): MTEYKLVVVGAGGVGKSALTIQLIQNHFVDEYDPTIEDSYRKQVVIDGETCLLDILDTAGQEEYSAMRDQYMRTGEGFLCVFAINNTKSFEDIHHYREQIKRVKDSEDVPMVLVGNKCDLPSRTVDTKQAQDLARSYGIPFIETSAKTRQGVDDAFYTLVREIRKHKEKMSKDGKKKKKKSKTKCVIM

CCC(C)[C@H](NC(=O)CCCCCCNC(=O)[C@H](CC(C)C)NC(=O)CNC(=O)c1cc(Cl)ccc1Cl)C(=O)Nc1ccc2[nH]c(Cc3c[nH]c4ccccc34)nc2c1 (stereo in doubt) [TUS-007]
amount of the wild-type K-Ras protein (Western blot) (24 hours after addition, relative to control (DMSO)): the amount of the wild-type K-Ras protein was reduced
amount of the wild-type K-Ras protein when both TUS-007 and MLN2238 were added (Western blot) (MLN2238 co-added, vs control (DMSO)): the amount of the wild-type K-Ras protein was increased as compared with the amount of the control (DMSO)
